According to patent publication US8815875B2 (Merck Sharp & Dohme Corp., priority 2008, dated 2014):

Each compound was assayed against FABP4 (Homo sapiens, UniProt P15090) (assay: TdF (Temperature Dependence Fluorescence) assay, thermal shift, FABP4).
Format: binding
Excerpt: TdF (Temperature Dependence Fluorescence) Assay for FABP3 and FABP4
The TdF assay was mainly conducted in the 96-well based CHROMO-4 real time fluorescence plate reader (BioRad). The Sypro Orange (Sigma-Aldrich), environmentally sensitive fluorescence dye, was used to monitor the protein folding-unfolding transition. Protein-ligand binding was gauged by the change (or shift) in the unfolding transition temperature (ΔTm) acquired at protein alone with respect to protein in the presence of ligand of interest.
The compound of interest was first prepared in DMSO stock (typical concentration: 10 mM). […] Final percentage of DMSO resided in the sample was 2%. The sample plate was heated from 30° C. to 90° C. with thermal ramping rate of 1° C./min. The fluorescence signals were acquired with excitation and emission wavelengths centered at 490 and 560 nm respectively. The instrument thermal stability was ±0.2° C.
Theoretical basis for TdF-based ligand binding affinity constant
In brief, the binding constant of the ligand at the Tm is expressed as below:
[formula] where To is the midpoint of unfolding for unliganded protein and Tm is the midpoint of unfolding in presence of ligand. [LTm] is free ligand at Tm. The ΔHu and ΔCpu are the enthalpy of unfolding and heat capacity change of unfolding for the protein respectively.
The nonlinear regression fitting in general readily reaches convergence by properly constraining the initial values for the fitting parameters (e.g. the initial “guess” for the ΔHu was constrained to 120 kcal/mol; initial Yn and mn were set to 1 and zero to best represent the melting curve along the low temperature region; negative slope of −0.5 was initially chosen for mu; initial Tm was also constrained to 50° C.).
[formula] (see Brandts et al and Mayhood et al, shown above) where ΔHL (T) is the van't Hoff enthalpy of ligand binding at temperature T and ΔCpL is the heat capacity upon ligand binding. For simplicity, the ΔCpL and ΔHL (T) were set to zero and −7 kcal/mol respectively. […] TdCD (Temperature-dependent Circular Dichroism) Assay for FABP3/4/5

FABP4, sequence (P15090 whole entry, species assumed): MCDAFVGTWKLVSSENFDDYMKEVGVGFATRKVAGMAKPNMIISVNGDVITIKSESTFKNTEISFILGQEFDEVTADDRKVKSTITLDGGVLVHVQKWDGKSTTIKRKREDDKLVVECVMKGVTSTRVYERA

Row | SMILES | FABP4 TdF Kd | Kd [nM]
1 | CC1(C(=O)Nc2c(Cl)cccc2OCc2cc(=O)n3nc(-c4ccccc4)nc3[nH]2)CC1 [49-5] | B (0.5 ≦ B < 0.001 μM) | –
2 | O=C(NCC1(CO)CC1)c1ccccc1OCc1[nH]c2nc(-c3ccccc3)nn2c(=O)c1Cl [24-16] | B (0.5 ≦ B < 0.001 μM) | –
3 | CC(C)(C)OC(=O)N1CCC(OCc2cc(=O)n3nc(-c4ccccc4)nc3[nH]2)(C(=O)NCC2CCC2)CC1 [48-22] | – | > 500
4 | CC(C)(C)c1cc(NC(=O)c2c(Cl)cccc2OCc2cc(=O)n3nc(-c4ccccc4)nc3[nH]2)n(-c2ccc(Cl)cc2)n1 [47-27, N-(3-tert-butyl-1-(4-chlorophenyl)-1H-pyrazol-5-yl)-2-chloro-6-((7-oxo-2-phenyl-4,7-dihydro-[1,2,4]triazolo[1,5-a]pyrimidin-5-yl)methoxy)benzamide] | – | ≤ 1
5 | COC[C@H]1CCCN1C(=O)c1c(Cl)cccc1OCc1cc(=O)n2nc(-c3ccccc3)nc2[nH]1 [47-10] | B (0.5 ≦ B < 0.001 μM) | –
6 | CN(C)Cc1c(Cl)cccc1OCc1cc(=O)n2nc(-c3ccccc3)nc2[nH]1 [33-1] | – | > 500
7 | CCc1ccc(OCc2cc(=O)n3nc(C)nc3[nH]2)cc1 [8-3] | – | > 500
8 | O=C(NCC1(CO)CCC1)c1ccccc1OCc1cc(=O)n2nc(-c3ccccc3)nc2[nH]1 [47-58] | B (0.5 ≦ B < 0.001 μM) | –
9 | CCc1ccc(OCc2cc(=O)n3nc(C(=O)OC)nc3[nH]2)cc1 [8-7] | – | > 500
10 | O=C(Nc1cc(C2CC2)n[nH]1)c1c(Cl)cccc1OCc1cc(=O)n2nc(-c3ccccc3)nc2[nH]1 [47-32, 2-chloro-N-(3-cyclopropyl-1H-pyrazol-5-yl)-6-((7-oxo-2-phenyl-4,7-dihydro-[1,2,4]triazolo[1,5-a]pyrimidin-5-yl)methoxy)benzamide] | B (0.5 ≦ B < 0.001 μM) | –
11 | Cn1ccc(NCc2cc(=O)n3nc(-c4ccccc4)nc3[nH]2)n1 [1-90] | – | > 500
12 | O=C(NCC1CC1)c1c(Cl)cccc1OCc1cc(=O)n2nc(-c3ccccc3)nc2[nH]1 [47-3] | B (0.5 ≦ B < 0.001 μM) | –
13 | CC1(CNC(=O)c2c(Cl)cccc2OCc2cc(=O)n3nc(-c4ccccc4)nc3[nH]2)COC1 [47-28, 2-chloro-N-((3-methyloxetan-3-yl)methyl)-6-((7-oxo-2-phenyl-4,7-dihydro-[1,2,4]triazolo[1,5-a]pyrimidin-5-yl)methoxy)benzamide] | – | ≤ 1
14 | COCC1(CNC(=O)C2(OCc3cc(=O)n4nc(-c5ccccc5)nc4[nH]3)CCCCC2)CC1 [48-55] | B (0.5 ≦ B < 0.001 μM) | –
15 | O=c1cc(CN2CCCC2Cc2cccc(Cl)c2)[nH]c2nc(-c3ccccc3)nn12 (centres unmarked) [1-57] | B (0.5 ≦ B < 0.001 μM) | –
16 | Cc1cc(NC(=O)c2c(Cl)cccc2OCc2cc(=O)n3nc(-c4ccccc4)nc3[nH]2)no1 [47-8, 2-chloro-N-(5-methylisoxazol-3-yl)-6-((7-oxo-2-phenyl-4,7-dihydro-[1,2,4]triazolo[1,5-a]pyrimidin-5-yl)methoxy)benzamide] | B (0.5 ≦ B < 0.001 μM) | –
17 | CCc1ccc(OCc2[nH]c3nc(-c4ccccc4)nn3c(=O)c2Br)cc1 [2-2] | – | > 500
18 | COc1cc(OC)cc(OCc2cc(=O)n3nc(-c4ccccc4)nc3[nH]2)c1 [1-32] | B (0.5 ≦ B < 0.001 μM) | –
19 | Cc1c(Cl)cccc1OCc1cc(=O)n2nc(-c3ccccn3)cc2[nH]1 [8-14] | – | > 500
20 | O=C(N1CCOCC1)C1(OCc2cc(=O)n3nc(-c4ccccc4)nc3[nH]2)CCCCC1 [48-19] | – | > 500

Row | SMILES | FABP4 TdF Kd | Kd [nM]
21 | O=C(NCC1(c2ccccc2Cl)CC1)C1(OCc2cc(=O)n3nc(-c4ccccc4)nc3[nH]2)CCCCC1 [48-14] | B (0.5 ≦ B < 0.001 μM) | –
22 | O=C(O)C1(OCc2cc(=O)n3nc(C(F)(F)F)nc3[nH]2)CCCCC1 [54-1] | – | > 500
23 | CCc1ccc(OCc2cc(=O)n3nc(-c4ccncc4)nc3[nH]2)cc1 [8-10] | – | > 500
24 | Cc1ccccc1C(C)Cc1cc(=O)n2nc(-c3ccccc3)nc2[nH]1 (centres unmarked) [35-5] | B (0.5 ≦ B < 0.001 μM) | –
25 | COc1ccccc1C1(CNC(=O)c2c(Cl)cccc2OCc2cc(=O)n3nc(-c4ccccc4)nc3[nH]2)CCC1 [47-23] | B (0.5 ≦ B < 0.001 μM) | –
26 | O=c1cc(CN2CCC(Cc3ccc(Cl)cc3)CC2)[nH]c2nc(-c3ccccc3)nn12 [1-78] | – | > 500
27 | O=c1cc(COc2cc(Cl)cc(Cl)c2)[nH]c2nc(-c3ccccc3)nn12 [1-86] | B (0.5 ≦ B < 0.001 μM) | –
28 | O=c1cc(COc2ccccc2Cl)[nH]c2nc(-c3ccccc3)nn12 [1-118] | B (0.5 ≦ B < 0.001 μM) | –
29 | O=C(NC1(CO)CCC1)c1c(Cl)cccc1OCc1cc(=O)n2nc(-c3ccccc3)nc2[nH]1 [47-35] | B (0.5 ≦ B < 0.001 μM) | –
30 | O=C(c1c(Cl)cccc1OCc1cc(=O)n2nc(-c3ccccc3)nc2[nH]1)N1CCS(=O)(=O)CC1 [47-6, 4-[2-chloro-6-[(4,7-dihydro-7-oxo-2-phenyl[1,2,4]triazolo[1,5-a]pyrimidin-5-yl)methoxy]benzoyl]thiomorpholine, 1,1-dioxide] | – | > 500
31 | O=c1c(Cl)c(COCC2(c3cccc(C(F)(F)F)c3)CC2)[nH]c2nc(-c3ccccc3)nn12 [24-7] | B (0.5 ≦ B < 0.001 μM) | –
32 | CC(C)(CNC(=O)c1c(Cl)cccc1OCc1cc(=O)n2nc(-c3ccccc3)nc2[nH]1)N1CCOCC1 [47-22, 2-chloro-N-(2-methyl-2-morpholinopropyl)-6-((7-oxo-2-phenyl-4,7-dihydro-[1,2,4]triazolo[1,5-a]pyrimidin-5-yl)methoxy)benzamide] | B (0.5 ≦ B < 0.001 μM) | –
33 | O=C(NCC1(c2ccc(Cl)cc2)CC1)c1c(Cl)cccc1OCc1cc(=O)n2nc(-c3ccccc3)nc2[nH]1 [47-4, 2-chloro-N-((1-(4-chlorophenyl)cyclopropyl)methyl)-6-((7-oxo-2-phenyl-4,7-dihydro-[1,2,4]triazolo[1,5-a]pyrimidin-5-yl)methoxy)benzamide] | – | ≤ 1
34 | O=C(NCCC1CC1)C1(OCc2cc(=O)n3nc(-c4ccccc4)nc3[nH]2)CCCCC1 [48-26] | B (0.5 ≦ B < 0.001 μM) | –
35 | Cc1cnc2cccc(NCc3cc(=O)n4nc(-c5ccccc5)nc4[nH]3)n12 [1-104] | – | > 500
36 | O=c1cc(COc2cccc3c2CCCC3)[nH]c2nc(-c3ccccc3)nn12 [1-10] | B (0.5 ≦ B < 0.001 μM) | –
37 | O=c1cc(COC2CCc3ccccc32)[nH]c2nc(-c3ccccc3)nn12 (centres unmarked) [1-9] | B (0.5 ≦ B < 0.001 μM) | –
38 | CN(C(=O)C1(OCc2cc(=O)n3nc(-c4ccccc4)nc3[nH]2)CCCCC1)C1CCCCC1 [48-27] | B (0.5 ≦ B < 0.001 μM) | –
39 | CC(C)(C)OCc1cc(=O)n2nc(-c3ccccc3)nc2[nH]1 [1-40] | – | > 500
40 | CC(C)c1ccc(NCc2cc(=O)n3nc(-c4ccccc4)nc3[nH]2)cc1 [6-1] | – | > 500

Row | SMILES | FABP4 TdF Kd | Kd [nM]
41 | O=C(O)C1(NC(=O)C2(OCc3cc(=O)n4nc(-c5ccccc5)nc4[nH]3)CCCCC2)CCCCC1 [48-44] | B (0.5 ≦ B < 0.001 μM) | –
42 | Cc1c(Br)cccc1OCc1cc(=O)n2nc(-c3ccccc3)nc2[nH]1 [1-84] | B (0.5 ≦ B < 0.001 μM) | –
43 | CCc1ccc(NCc2cc(=O)n3nc(C4CC4)nc3[nH]2)cc1 [5-9] | – | > 500
44 | O=C(NCCO)C1(OCc2cc(=O)n3nc(-c4ccccc4)nc3[nH]2)CCCCC1 [48-17] | B (0.5 ≦ B < 0.001 μM) | –
45 | CCc1cccc(OCc2cc(=O)n3nc(-c4ccccc4)nc3[nH]2)c1 [1-60] | B (0.5 ≦ B < 0.001 μM) | –
46 | O=c1cc(CNc2ccc(F)c(F)c2)[nH]c2nc(C(F)(F)F)nn12 [5-5] | – | > 500
47 | CCc1ccc(SCc2cc(=O)n3nc(-c4ccccc4)nc3[nH]2)cc1 [12-1] | B (0.5 ≦ B < 0.001 μM) | –
48 | NC1(COC(=O)C2(OCc3cc(=O)n4nc(-c5ccccc5)nc4[nH]3)CCCCC2)CCOCC1 [48-68] | – | > 500
49 | CC1(NC(=O)c2c(Cl)cccc2OCc2cc(=O)n3nc(-c4ccccc4)nc3[nH]2)COC1 [47-47] | B (0.5 ≦ B < 0.001 μM) | –
50 | O=c1cc(COc2cccnc2Br)[nH]c2nc(-c3ccccc3)nn12 [1-148] | – | > 500
51 | CC(C)(CNC(=O)C1(OCc2cc(=O)n3nc(-c4ccccc4)nc3[nH]2)CCCCC1)N1CCOCC1 [48-58] | B (0.5 ≦ B < 0.001 μM) | –
52 | Cc1c(Cl)cccc1OCc1cc(=O)n2nc(-c3ccsc3)nc2[nH]1 [25-4] | B (0.5 ≦ B < 0.001 μM) | –
53 | O=C(NC1(CO)CCCCC1)C1(OCc2cc(=O)n3nc(-c4ccccc4)nc3[nH]2)CCCCC1 [48-67] | B (0.5 ≦ B < 0.001 μM) | –
54 | Cc1c(Cl)cccc1OCc1cc(=O)n2nc(-c3ccccc3F)nc2[nH]1 [25-8] | – | > 500
55 | O=C(NC1CC1)C1(OCc2cc(=O)n3nc(-c4ccccc4)nc3[nH]2)CCCCC1 [48-18] | – | > 500
56 | Nc1c(Cl)cccc1OCc1cc(=O)n2nc(-c3ccccc3)nc2[nH]1 [1-136] | B (0.5 ≦ B < 0.001 μM) | –
57 | O=c1cc(CN2CCCC2Cc2cccnc2)[nH]c2nc(-c3ccccc3)nn12 (centres unmarked) [1-112] | – | > 500
58 | COc1ccc(OCc2cc(=O)n3nc(-c4ccccc4)nc3[nH]2)cc1OC [1-41] | – | > 500
59 | O=c1cc(CN2CCn3c(nnc3C3CC3)C2)[nH]c2nc(-c3ccccc3)nn12 [1-101] | – | > 500
